Source: US20230225990A1, “DIMETHYL SULFONE FOR TREATMENT OF CHRONICALLY HEAT STRESSED POULTRY” (Evonik Operations GmbH, priority 2020, published 2023)
Marks after values point to notes of the source that are not given here.

How the values were obtained:
[1] = system: chronically heat stressed poultry; test: Litter moisture; assay type: in vivo; settings: control diet+0.05 wt.-% DMS; d-42
Description: For this purpose, two treatments (T1: control diet, and T2: control diet+0.05 wt.-% DMS) were done with 13 replicate pens each and 10 birds per pen. Collection of litter was done at days 28 and 42 to determine litter moisture. The sampling of the litter was done in five different points in each pen (each corner and the centre of each pen) and then homogenized to compose the representative sample of the pen. […] Calculating was done according to the formula: […]

[2] = system: male broilers subjected to chronic cyclic heat stress; test: Animal performance (BW, ADG, ADFI, F:G, mortality, EPEF) with chronic cyclic heat stress in the finisher phase; assay type: in vivo, broiler chickens (Ross 308); settings: for FIhs (percentage of total feed intake consumed during hours of heat stress): 6 h heat stress per day, d-24 till d-39; for F:G corrected: total d0-d39, corrected to final body weight of 3050 g
Description: The experimental design consisted of one control group (T1) and two other groups receiving the control diet supplemented with increasing levels of DMS (dimethyl sulfone), specifically 0.1% DMS (T2) and 0.2% DMS (T3). Treatments were replicated in 12 pens each in a completely randomized block design. Block refers to physical allocation in the experimental facility. All the animal trial was realized in compliance with the Ethics Committee of Faculty of Veterinary Medicine (Ghent University, EC2018-71).
The experiment was conducted at the experimental facilities of the Department of Animal Sciences and Aquatic Ecology of Ghent University, located in Melle, Belgium. A total of 792 male broiler chickens (Ross 308, Aviagen Group) were provided by Vervaeke-Belavi hatchery (Tielt, Belgium). Larger treatment effects are expected with males, as they are more sensitive to heat stress (HS) (Cahaner and Leenstra, 1992). The experiment consisted in three rearing phases: starter (from d-0 to d-10), grower (from d-10 to d-21) and finisher (from d-21 to d-39). The one-day old chicks were weighted and equally spread among the pens according to their body weight (BW). Pens were randomly allocated to the treatment groups. The initial average animal BW was 41.3±0.31 g at the beginning of the experiment. The newly selected chicks were housed in a single climate-controlled room, which contained 36 pens of 22 animals each. […] The room was equipped with liner drinkers (two nipples per pen), and each pen had one tube-type metallic feeder. Temperature in starter and grower phase was set to decrease linearly from 34° C., at d-0 until a basal temperature of 22° C., at d-24. The light of the room was turned on 23 h in period d-0 to d-7, and then turned on at 4:00 and switched off at 22:00 during the rest of the experiment (18L:6D).
The finisher period started at d-21, and the chronic cyclic heat stress (HS) protocol was applied from d-24 until d-39. Starting from d-24, the temperature was increased from 22° C. to 34° C. for 6 hours per day (from 9:00 to 15:00) with relative air humidity (RH) between 52 and 58%. From 8:00 to 9:00, the temperature was increased from 22° C. to 34° C., and from 15:00 to 16:00, the temperature was decreased from 34° C. to 22° C. The rest of the day the temperature was 22° C. The room was equipped with heaters with thermostats, and air circulators to enable the desired temperature and RH to be maintained, providing sufficient ventilation and air conditions. RH was adjusted with manual spraying of water on stable walls, periodically. The temperature and the RH were recorded at 10-min intervals with a dry bulb thermo-hygrometer (Escort RH iLog, Escort Verification Technologies Inc., Buchanan, United States).
Wheat and soybean meal-based feeds were formulated to meet the nutrient requirements of broiler chickens, according to Ross308 recommendations or slightly lower to avoid excessive mortality in the finisher phase. […] The final formulation was approved by the commissioner. The test substance dimethyl sulfone was added on top at 0.1 and 0.2% in T2 and T3 in all rearing phases, respectively. Diets were processed by Research Dietary Services (RDS, Wijk bij Duurstede, The Netherlands) and delivered to Ghent University. All the diets were provided as pellets during all rearing phases. The chickens were fed ad libitum and had free access to water during the whole experiment.
For all performance indices, the pen is the experimental unit. Total feed intake (FI) was recorded for each rearing period. In addition, FI during HS period was recorded every day, weighing the feeders before (at 8:00) and after (at 16:00) HS every day. That allows the calculation of the relative FI during period with HS relative to the total FI for each day during HS (d-24 to d-39). The total body weight (BW) of each pen was recorded at d-0, d-10, d-21 and d-39, and divided by the number of chickens in the pen at that day to have the average BW for each pen. […]

[3] = 0.1% DMS in diet (T2), d-24 to d-39, excluding pen 24
[4] = 0.1% DMS in diet (T2), finisher d21-d39, heat stress d-24 till d-39
[5] = 0.1% DMS in diet (T2), grower d10-d21
[6] = 0.1% DMS in diet (T2), starter d0-d10
[7] = 0.1% DMS in diet (T2), total d0-d39
[8] = 0.2% DMS in diet (T3), d-24 to d-39, excluding pen 24
[9] = 0.2% DMS in diet (T3), finisher d21-d39, heat stress d-24 till d-39
[10] = 0.2% DMS in diet (T3), grower d10-d21
[11] = 0.2% DMS in diet (T3), starter d0-d10
[12] = 0.2% DMS in diet (T3), total d0-d39

CS(C)(=O)=O [DMS, dimethyl sulfone]
Moisture content in the litter [1]: clear reduction
FIhs (percentage of total feed intake consumed during hours of heat stress) ([2]; 0.1% DMS in diet (T2)): 27.9%
Cases of mortality [2, 3]: 10
Cases of mortality+culling [2, 3]: 12
Cases of mortality+culling ([2]; 0.1% DMS in diet (T2), d-24 to d-39, pen 24 included): 17
ADFI [2, 4]: 179 g/day
ADG [2, 4]: 106 g/day
F:G [2, 4]: 1.71
Final BW [2, 4]: 3100 g
Mortality [2, 4]: 4.7%
Mortality + culling [2, 4]: 6.0%
ADFI [2, 5]: 103 g/day
ADG [2, 5]: 75.5^a g/d
ADG higher as compared to control [2, 5]: 2.6%
F:G [2, 5]: 1.36^b
F:G reduced as compared to control [2, 5]: 6 points
Final BW [2, 5]: 1189 g
Mortality [2, 5]: 1.1%
Mortality + culling [2, 5]: 1.1%
ADFI [2, 6]: 32.5 g/day
ADG [2, 6]: 31.7 g/day
F:G [2, 6]: 1.03
Final BW [2, 6]: 359 g
Mortality [2, 6]: 0.0%
Mortality + culling [2, 6]: 0.0%
ADFI [2, 7]: 116 g/day
ADG [2, 7]: 78.4 g/day
EPEF (European production efficiency factor) [2, 7]: 488
F:G [2, 7]: 1.53
Mortality [2, 7]: 5.9%
Mortality + culling [2, 7]: 7.3%
F:G corrected ([2]; 0.1% DMS in diet (T2)): 1.54
FIhs (percentage of total feed intake consumed during hours of heat stress) ([2]; 0.2% DMS in diet (T3)): 27.9%
Cases of mortality [2, 8]: 8
Cases of mortality+culling [2, 8]: 8
Cases of mortality+culling ([2]; 0.2% DMS in diet (T3), d-24 to d-39, pen 24 included): 8
ADFI [2, 9]: 178 g/day
ADG [2, 9]: 104 g/day
F:G [2, 9]: 1.72
Final BW [2, 9]: 3066 g
Mortality [2, 9]: 3.1%
Mortality + culling [2, 9]: 3.1%
ADFI [2, 10]: 102 g/day
ADG [2, 10]: 76.1^a g/d
ADG higher as compared to control [2, 10]: 3.4%
F:G [2, 10]: 1.35^b
F:G reduced as compared to control [2, 10]: 7 points
Final BW [2, 10]: 1194 g
Mortality [2, 10]: 0.4%
Mortality + culling [2, 10]: 0.8%
ADFI [2, 11]: 32.3 g/day
ADG [2, 11]: 31.6 g/day
F:G [2, 11]: 1.03
Final BW [2, 11]: 357 g
Mortality [2, 11]: 0.8%
Mortality + culling [2, 11]: 0.8%
ADFI [2, 12]: 117 g/day
ADG [2, 12]: 77.6 g/day
EPEF (European production efficiency factor) [2, 12]: 491
F:G [2, 12]: 1.54
Mortality [2, 12]: 4.2%
Mortality + culling [2, 12]: 4.5%
F:G corrected ([2]; 0.2% DMS in diet (T3)): 1.54
